Experimental data: PMC3992874 (Journal of nuclear medicine : official publication, Society …, 2013)

What was measured:
[1] = patients; cited from earlier work
LP9 mesothelial cells = experiment: Viability of carboplatin-treated LP9 mesothelial cells; type: cell-based, human; conditions: increasing concentrations up to 1 μg/ml, 24 hours, data not shown
[2] = tested on: VCAM-1 expression, SKOV3ip1 (platinum resistant) tumors; type: in vivo, mouse; conditions: SKOV3ip1 mice, single IP 25 mg/kg; 111In-tVCAM-4 omentum biodistribution; n=3
VCAM-1 = conditions: previous work; cited from earlier work

Compound	injected dose excreted within 24 hours [1]	effect on cell viability (LP9 mesothelial cells)	VCAM-1 expression above baseline 2 days after treatment [2] [%]	affinity for VCAM-1 (VCAM-1)
N.N.O=C([O-])C1(C(=O)[O-])CCC1.[Pt+2] [carboplatin]	up to 80%	None of the concentrations tested altered	50	
(βAKTLLPTPGGS(PEG5000))KKKDOTAβA-NH2 [tVCAM-4]				high affinity
